In US20040198650A1, “Means for inhibiting proteolytical processing of parkin” (priority 2001, published 2004):
Entries after “also recorded” stand apart in the source; their conditions may differ.

Experiments:
[1] = test system: apoptosis-associated Parkin cleavage in K3 CHO cells expressing human Parkin; experiment: Caspase inhibitors on okadaic acid-induced, apoptosis-associated Parkin cleavage in K3 CHO cells (T160 immunoblot); format: cell-based, Chinese hamster; conditions: 10 microM inhibitor, 200 nM okadaic acid for 16 h
Experimental: K3 CHO cells were treated with 200 nM okadaic acid for 16 h (lanes 2-4) in the presence of 10 microM of the caspase inhibitors YVAD-chloromethylketone (lane 3) and DEVD-chloromethylketone (lane 4). The control cells treated with the DMSO used for solubilising the caspase inhibitors are shown in lane 2. Lane 1 represents non-treated control cells. […] Similar data was obtained in the Park8 SH-SY5Y cells.
The parental cell lines and the Parkin expressing cell lines were extracted in 8 M urea, 1% Triton X 100.20 microgram protein was supplemented to 2% sodium dodecylsulphate, 20 mM dithioerythreitol, 20 mM Tris, pH 6.5, 20% glycerol, heated to 95° C. for 5 min, whereafter the mixture was resolved by 10-20% gradient sodium dodecylsulphate polyacrylamide gelelectrophoresis. The proteins in the gel were electroblotted onto a nitrocellulose membrane and non-specific protein binding was blocked by incubating the membrane in block solution (20 mM Tris, pH 7.4, 130 mM NaCl, 0.5% Triton X100, 5% skimmed milk powder) for 2 hours. The membrane was subsequently incubated with primary antibody (PAR-N1, PAR-C1 and T160 diluted 1/500 in block solution) for 2 hours, rinsed in 20 mM Tris, pH 7.4, 130 mM NaCl, 0.5% Triton X100 and incubated with a second antibody (horse radish peroxidase conjugated swine anti rabbit serum) for 1 hour and rinsed. The bound antibody was then visualised by chemilumenescense according to the manufacturers recommendation (ECL, Amersham Pharmacia Biotech). FIG. 2 panel B, lanes 1 and 5 represent the non-transfected CHO and SH-SY5Y cell lines, respectively. FIG. 2, panel B, lanes 24 represents Parkin expressing CHO cells K3 and lane 6 represents the Parkin expressing SH-SY5Y cell Park 8. Lanes 1, 2, 5 and 6 were incubated with T160, lane 3 with PAR-Ni and lane 4 with PAR-C1. The molecular size marker is indicated to the left in kDa.
K3-CHO cells were treated with 200 nM okadaic acid for 16 h prior to extraction and processing for T160 immunoblot as described in example 2. […]

[2] = test system: K3-CHO and Park8-SH-SY5Y cells expressing human Parkin; experiment: Parkin cleavage during cellular apoptosis, induction verified by PARP immunoblot, in Parkin expressing cell lines; format: cell-based
Text: Parkin cleavage during cellular apoptosis. […] Lanes 1-4, 6 were probed with T160, lane 5 with PAR-N1 and lane 7 with PAR-C1. The molecular weight is indicated to the left for Parkin (51 kDa) and the Parkin peptides (38 kDa and 11,5 kDa, respectively). The induction of apoptosis was verified biochemically by testing the binding of the same membranes with the mouse monoclonal poly-ADP-ribose (PARP) antibody 66401 A (Pharmigen). […] The generation of the 86 kDa PARP fragment is a recognised marker for apoptosis associated proteolysis.
The stably transfected Parkin expressing cell lines, K3-CHO (FIG. 3, lanes 1-5) and Park8-SH-SY5Y (FIG. 3, lanes 6, 7) were extracted and prepared for immunoblotting as described in example 2. […] FIG. 3, lanes 1-4, 6 were probed with T160, lane 5 with PAR-N1 and lane 7 with PAR-C1 antibodies. The molecular weight is indicated to the left for Parkin (51 kDa) and the Parkin peptides (38 kDa and 11,5 kDa, respectively). […]

[3] = test system: apoptosis-associated (caspase) cleavage of human Parkin; experiment: Site directed mutagenesis of Parkin Asp residues: apoptosis-associated cleavage in stably transfected CHO and SH-SY5Y cell lines (T160 immunoblot); format: cell-based; conditions: 200 nanoM okadaic acid for 16 h
Text: Site directed mutagenesis of […] 126 in parkin to a glutamate residue reduce the apoptosis associated cleavage of parkin. Caspases are proteinases that always cleave after an Asp residue and FIG. 3 indicated the cleavage takes place within the N-terminal 150 amino acid residues. We mutagenised the parkin expression vector to express human parkin where the Asp in the positions 86 plus 87,106, 115, 126 and 130 were substituted with and Glu. CHO and SHSY5Y cell lines were stably transfected with the expression vectors and used for testing the effect of the mutations on apoptosis-associated parkin cleavage. These cells and the cell lines expressing the normal Parkin were treated with 200 nanoM okadaic acid for 16 h and extracted for T160 immunoblotting. The CHO cell lines are represented in lanes 1-6 and the SH-SY5Y cell lines in lanes 7-12. Wild type Parkin is represented in lanes 1, 2, 7, 8; D126E in lanes 3, 4, 9, 10; D130E in lanes 5, 6, 11, 12. Lanes 1, 3, 5, 7, 9, 11 represent untreated cells and lanes 2, 4, 6, 8, 10, 12 represent okadaic treated cells. The positions of the 51 kDa and 38 kDa Parkin proteins are indicated by the upper and lower left arrows.
Caspases are proteinases that always cleave after an Asp residue. Cell lines were generated where Asp residues were changed to Glu residues to test if this amino acid position might represent the caspase cleavage sites. The Parkin expression vector used for generating the Parkin expressing K3 CHO and Park8 SH-SY5Y cell lines was changed by PCR mediated site directed mutagenesis so the nucleotide No.479 was changed from a cytosine to an adenine (ParkinD126E). The cDNA encoding Parkin was kindly provided by Dr. Mizuno, Juntendo University School of Medicine, Japan. The Parkin cDNA was PCR amplified using the primers: […]
The amplified Parkin cDNA was cloned into the Nhe I and EcoR I site of the pcDNA3.1/Zeo(−) vector and the Parkin cDNA sequence was checked by sequencing. To prepare the D126E mutant, the inventors performed site-directed mutagenesis using the Quickchange Mutagenesis Kit (Stratagene) according to the manufactures instructions. Complementary strands of the oligonucleotide: 5′-[…]-3′ were used for preparing the D126E mutated construct. Parkin vectors containing Parkin mutated for D130E and DD86, 87EE were constructed by analogous techniques. This vector was then transfected into SH-SYSY or CHO cells using FUGENE6 (Boehringer Mannheim) and stably transfected cell lines were selected using 25 microgram Zeocinl ml medium (SH-SY5Y cells) or 300 microgram Zeocin/ml medium (CHO cells). The sequences of the vectors were verified by DNA sequencing. The expression vectors were used to generate the stably transfected DD86, 87EE, D126E and D130E CHO and SH-SY5Y cell lines expressing Parkin protein with the indicated substitutions of amino acids. These cells and the cell lines expressing the normal Parkin were treated with 200 nanoM okadaic acid for 16 h and extracted for T160 immunoblotting. The CHO cell lines are represented in lanes FIG. 5, 1-6 and the SH-SY5Y cell lines in lanes 7-12. Wild type Parkin is represented in lanes 1, 2, 7, 8; D126E in lanes 3, 4, 9, 10; D130E in lanes 5, 6, 11, 12. Lanes 1, 3, 5, 7, 9, 11 represent untreated cells and lanes 2, 4, 6, 8, 10, 12 represent okadaic treated cells. The positions of the 51 kDa and 38 kDa Parkin proteins are indicated by the upper and lower left arrows.

[4] = test system: CHO and SH-SY5Y cell lines; conditions: cell death induced by 3 mM mercaptoethanol; Imai et al. 2000, FIG. 4A; cited from earlier work

YVAD-chloromethylketone
Effect on apoptosis-associated Parkin cleavage (51 kDa Parkin to 38 kDa fragment) [1]: cleavage is abrogated
Effect on apoptosis-associated Parkin cleavage (51 kDa Parkin to 38 kDa fragment) ([1]; listed as WAD-chloromethylketone): abrogate the cleavage

CC[C@@]1(O)C(=O)OCc2c1cc1n(c2=O)Cc2cc3ccccc3nc2-1 [campthotecin]
Induction of apoptosis (generation of caspase 3 generated 86 kDa PARP fragment) ([2]; 5 microgram/ml for 30 hours, K3-CHO): 86 kDa fragment was generated

C=C1[C@@H](O)[C@@H]2O[C@]3(CC[C@H](/C=C/[C@@H](C)[C@@H]4CC(C)=C[C@@]5(O[C@H](C[C@@](C)(O)C(=O)O)CC[C@H]5O)O4)O3)CC[C@H]2O[C@@H]1[C@@H](O)C[C@H](C)[C@H]1O[C@@]2(CCCCO2)CC[C@H]1C [okadaic acid]
Induction of apoptosis (generation of caspase 3 generated 86 kDa PARP fragment) ([2]; 200 nM for 16 hours): 86 kDa fragment was generated

DEVD-chloromethylketone
Effect on apoptosis-associated Parkin cleavage (51 kDa Parkin to 38 kDa fragment) [1]: abrogate the cleavage; also recorded: cleavage is abrogated

OCCS [mercaptoethanol]
Parkin cleavage after D126 following induced cell death ([2]; T160 immunoblotting as in example 3): followed by Parkin cleavage after D126

B1: D130E: human Parkin with Asp 130 substituted by Glu (protein)
chain: MIVFVRFNSSHGFPVEVDSDTSIFQLKEVVAKRQGVPADQLRVIFAGKELRNDWTVQNCDLDQQSIVHIVQRPWRKGQEMNATGGDDPRNAAGGCEREPQSLTRVDLSSSVLPGDSVGLAVILHTDSRKESPPAGSPAGRSIYNSFYVYCKGPCQRVQPGKLRVQCSTCRQATLTLTQGPSCWDDVLIPNRMSGECQSPHCPGTSAEFFFKCGAHPTSDKETPVALHLIATNSRNITCITCTDVRSPVLVFQCNSRHVICLDCFHLYCVTRLNDRQFVHDPQLGYSLPCVAGCPNSLIKELHHFRILGEEQYNRYQQYGAEECVLQMGGVLCPRPGCGAGLLPEPDQRKVTCEGGNGLGCGFAFCRECKEAYHEGECSAVFEASGTTTQAYRVDERAAEQARWEAASKETIKKTTKPCPRCHVPVEKNGGCMHMKCPQPQCRLEWCWNCGCEWNRVCMGDHWFDV
Apoptosis-associated cleavage of mutated Parkin compared to wild type [3]: no significant effect; also recorded: cleavage as the WT parkin

B2: D115E: human Parkin with Asp 115 substituted by Glu (protein)
chain: MIVFVRFNSSHGFPVEVDSDTSIFQLKEVVAKRQGVPADQLRVIFAGKELRNDWTVQNCDLDQQSIVHIVQRPWRKGQEMNATGGDDPRNAAGGCEREPQSLTRVDLSSSVLPGESVGLAVILHTDSRKDSPPAGSPAGRSIYNSFYVYCKGPCQRVQPGKLRVQCSTCRQATLTLTQGPSCWDDVLIPNRMSGECQSPHCPGTSAEFFFKCGAHPTSDKETPVALHLIATNSRNITCITCTDVRSPVLVFQCNSRHVICLDCFHLYCVTRLNDRQFVHDPQLGYSLPCVAGCPNSLIKELHHFRILGEEQYNRYQQYGAEECVLQMGGVLCPRPGCGAGLLPEPDQRKVTCEGGNGLGCGFAFCRECKEAYHEGECSAVFEASGTTTQAYRVDERAAEQARWEAASKETIKKTTKPCPRCHVPVEKNGGCMHMKCPQPQCRLEWCWNCGCEWNRVCMGDHWFDV
Apoptosis-associated cleavage of mutated Parkin compared to wild type [3]: cleavage as the WT parkin

B3: Parkin: wild type human Parkin protein (SEQ ID NO: 2) (protein, listed as Homo sapiens)
chain: MIVFVRFNSSHGFPVEVDSDTSIFQLKEVVAKRQGVPADQLRVIFAGKELRNDWTVQNCDLDQQSIVHIVQRPWRKGQEMNATGGDDPRNAAGGCEREPQSLTRVDLSSSVLPGDSVGLAVILHTDSRKDSPPAGSPAGRSIYNSFYVYCKGPCQRVQPGKLRVQCSTCRQATLTLTQGPSCWDDVLIPNRMSGECQSPHCPGTSAEFFFKCGAHPTSDKETPVALHLIATNSRNITCITCTDVRSPVLVFQCNSRHVICLDCFHLYCVTRLNDRQFVHDPQLGYSLPCVAGCPNSLIKELHHFRILGEEQYNRYQQYGAEECVLQMGGVLCPRPGCGAGLLPEPDQRKVTCEGGNGLGCGFAFCRECKEAYHEGECSAVFEASGTTTQAYRVDERAAEQARWEAASKETIKKTTKPCPRCHVPVEKNGGCMHMKCPQPQCRLEWCWNCGCEWNRVCMGDHWFDV
modifications: mat_peptide (1)..() Native Parkin
Protection against cell death by Parkin expression [4]: approximately 50%

B4: D105E: human Parkin Asp to Glu mutant (position printed as 105 and 106) (protein)
chain: MIVFVRFNSSHGFPVEVDSDTSIFQLKEVVAKRQGVPADQLRVIFAGKELRNDWTVQNCDLDQQSIVHIVQRPWRKGQEMNATGGDDPRNAAGGCEREPQSLTRVELSSSVLPGDSVGLAVILHTDSRKDSPPAGSPAGRSIYNSFYVYCKGPCQRVQPGKLRVQCSTCRQATLTLTQGPSCWDDVLIPNRMSGECQSPHCPGTSAEFFFKCGAHPTSDKETPVALHLIATNSRNITCITCTDVRSPVLVFQCNSRHVICLDCFHLYCVTRLNDRQFVHDPQLGYSLPCVAGCPNSLIKELHHFRILGEEQYNRYQQYGAEECVLQMGGVLCPRPGCGAGLLPEPDQRKVTCEGGNGLGCGFAFCRECKEAYHEGECSAVFEASGTTTQAYRVDERAAEQARWEAASKETIKKTTKPCPRCHVPVEKNGGCMHMKCPQPQCRLEWCWNCGCEWNRVCMGDHWFDV
Apoptosis-associated cleavage of mutated Parkin compared to wild type [3]: cleavage as the WT parkin

B5: DD86, 87EE: human Parkin double mutant, Asp 86 and 87 substituted by Glu (protein)
chain: MIVFVRFNSSHGFPVEVDSDTSIFQLKEVVAKRQGVPADQLRVIFAGKELRNDWTVQNCDLDQQSIVHIVQRPWRKGQEMNATGGEEPRNAAGGCEREPQSLTRVDLSSSVLPGDSVGLAVILHTDSRKDSPPAGSPAGRSIYNSFYVYCKGPCQRVQPGKLRVQCSTCRQATLTLTQGPSCWDDVLIPNRMSGECQSPHCPGTSAEFFFKCGAHPTSDKETPVALHLIATNSRNITCITCTDVRSPVLVFQCNSRHVICLDCFHLYCVTRLNDRQFVHDPQLGYSLPCVAGCPNSLIKELHHFRILGEEQYNRYQQYGAEECVLQMGGVLCPRPGCGAGLLPEPDQRKVTCEGGNGLGCGFAFCRECKEAYHEGECSAVFEASGTTTQAYRVDERAAEQARWEAASKETIKKTTKPCPRCHVPVEKNGGCMHMKCPQPQCRLEWCWNCGCEWNRVCMGDHWFDV
Apoptosis-associated cleavage of mutated Parkin compared to wild type [3]: no significant effect; also recorded: cleavage as the WT parkin
